Measured values taken from publication PMC6369428, “Efflux Inhibitor Bicalutamide Increases Oral Bioavailability of the Poorly Soluble Efflux Substrate Docetaxel in Co-Amorphous Anti-Cancer Combination Therapy” (Molecules, 2019).
≈ marks a conversion by molar mass, not a printed value. Like-named read-outs stand apart in the source and are kept apart here. Values belong to the compound of their own block, whether it stands above or below them.

Assays:
[1] = Dissolution studies in FaSSIF biorelevant medium; type: physicochemical; conditions: 37 °C
Description: The concentrations of DTX and BIC were determined using a reversed-phase high-performance liquid chromatography (HPLC) system (Dionex Corporation, CA, USA) equipped with an ASI-100 autosampler, Dionex Ultimate 300 UV-Visible detector and pump. Chromatographic separation was achieved using a XB-C18 Phenomenex Kinetex column of 2.6 μm (2.1 × 50 mm) (Torrance, CA, USA) at 30 °C. The mobile-phase consisted of a mixture of A) 95% water 5% acetonitrile (ACN) and 0.1% trifluoroacetic acid (TFA) and B) 95% ACN 5% water 0.1% TFA, and was used at a flow rate of 0.5 mL/min in isocratic mode (60% A 40% B). Peaks were analysed at 270 nm for BIC and 230 nm for DTX. Linear calibration curves in the range of 0.25–5 μg/mL for both BIC and DTX were obtained in acetonitrile. Elution times were 4.8 min for BIC and 6.4 min for DTX.
For the dissolution studies, powder formulations were initially suspended in PBS in order to avoid powder agglomerates. Immediately after suspension, 100 µL aliquots were added to each well of a 12-well plate containing 2.9 mL dissolution medium/well. The concentrations of the drugs in the dissolution medium were 3 times higher than their respective saturation solubilities. […] The obtained samples were centrifuged at 10,000 g for 10 min and the supernatant was then analysed by HPLC (see above). […]

[2] = Physical stability on storage, analysed by XRPD; type: physicochemical; conditions: 1.5 years at 4 °C under dry conditions
Description: XRPD was performed using an X’Pert PANalytical PRO X-ray diffractometer (PANalytical, Almelo, The Netherlands) using Cu Kα radiation (λ = 1.54 Å), and an acceleration voltage and current of 45 kV and 40 mA, respectively. The powder samples were scanned in reflectance mode from 5° to 35° 2ϴ with a scan speed of 0.067° 2ϴ and a step size of 0.026° 2ϴ. Data were collected and analyzed using the software X’Pert Data Collector (PANalytical, Almelo, The Netherlands).
The co-amorphous binary DTX-BIC mixture as well as the pure individual amorphous drugs were stored in a desiccator under dry conditions (silica gel) at 4 °C and analysed by XRPD after 1.5 years of storage.

[3] = In vivo pharmacokinetics study in fasted rats; design: species or system Sprague Dawley rats; conditions: for DTX AUC / BIC AUC: mean ± SEM
Description: Healthy female and male Sprague Dawley rats of 7 weeks age weighing 140–240 g (Charles River, Denmark), were used for the experiments. The rats were housed with free access to water and food in groups of two rats per cage under controlled environmental conditions (constant temperature and humidity with a 12 h day-night cycle). All animal experimental work was carried out under the protocol approved by the Danish Animal Experiments Inspectorate (approval no. 2014-15-0201-00031), and all the procedures used were refined to provide maximal comfort and minimal stress to the animals.
All animals were fasted for approximately 12 h prior to administration of the drug formulations and food was provided to rats approximately 6 h after drug administration, although free access to water was allowed during fasting. The nine groups studied, each consisting of 6–8 rats, were assigned randomly and included two groups receiving an intravenous bolus injection of either DTX or BIC corresponding to 1 mg/rat (4–7 mg/kg) dissolved in saline: DMSO (50:50 v/v) with 1% Tween 80, administered in the tail vein. The remaining seven groups were orally administered with DTX or BIC or a combination of these at a fixed dose of 30 mg/kg for DTX and 16 mg/kg for BIC. For DTX, four groups of animals were studied, one group administered with crystalline DTX (crystalline), one group administered with a physical mixture of crystalline DTX and BIC (physical mix), one group administered with amorphous DTX (amorphous) and one group administered with the co-amorphous mixture of DTX and BIC (co-amorphous). For BIC three groups of animals were studied, one group administered with crystalline BIC (crystalline), one groups administered with a physical mixture of crystalline DTX and BIC (physical mix) and one group administered with the co-amorphous mixture of DTX and BIC (co-amorphous). Drug powders were suspended in 0.5 mL PBS and the suspension was immediately administered to the rats using a flexible cannula. Blood samples (150–200 µL) were collected in EDTA coated tubes from puncturing of the tail vein at 0.5, 1, 2, 4, 6 and 24 h after drug administration. The rats were euthanized by cervical dislocation after collection of the final blood sample. Plasma samples were obtained by centrifugation of blood samples at 3600 g (10 min, 4 °C) and transferred into microtubes. The plasma samples were stored at −80 °C until used for further analysis.
The bioanalysis of DTX and BIC in rat plasma was carried out using HPLC coupled with mass spectrometric (MS) detection. Prior to analysis liquid-liquid extraction was performed on the plasma samples (50 μL) by adding 100 μL of ethyl acetate and subsequently vortexing the vial for protein precipitation. The vials were centrifuged and 100 μL supernatant was carefully transferred to HPLC vials with inserts and evaporated using compressed air. The dried content of the vial was reconstituted using 150 μL ACN:H2O (1:1 v/v) and measured by LC-MS/MS.
LC-MS/MS analysis was performed using a 1290 Agilent Infinity Series system (Agilent Technologies, Palo Alto, CA, USA) coupled to an AB Sciex 4500 QTrap MS (Applied Biosystems, Foster City, CA, USA). A HPLC-MS method was developed for each compound. In both cases chromatographic separation was performed using a Phenomenex Kinetex (Torrance, CA, USA) C18 (50 × 2.1 mm, 2.6 μm) column with a Phenomenex C18 SecurityGuard™ Ultra (2.1 mm, 2 µm) guard column and the mobile phases consisted of (A) MilliQ water with 0.1% formic acid and (B) ACN with 0.1% formic acid. The column and autosampler tray were set at 40 °C and 6 °C, respectively, and the flow rate was set at 0.25 mL/min. The injection volume was set at 1 μL and 5 μL for BIC and DTX, respectively. For BIC, the elution gradient started at 20% B at time 0 and increased to […] at time 3.0 min. Hereafter B was held at 99% until 4.3 min before re-equilibrating the column until 5.5 min. The retention time for BIC was 3.12 min. […]

[4] = Saturation solubility studies in FaSSIF; type: physicochemical; conditions: crystalline drugs, FaSSIF pH 6.5, after 72 h with excess drug powder
Description: DTX and BIC saturation solubility studies were conducted in FaSSIF. The biorelevant FaSSIF medium was prepared by adding 218 mg bovine bile extract, 58 mg phosphatidylcholine, 232 mg Tris maleate salt and 395 mg sodium chloride to 100 mL of ultra-purified water and stirring overnight at 37 °C. The medium pH was adjusted to 6.5 with 1 M NaOH before use. Approximately 100 mg of the drugs were mixed with 1.5 mL of the media in plastic tubes, and the suspensions were rotated at 20 rpm for 72 h. The solution was separated from undissolved drug by centrifugation, and aliquots from the saturated solution were filtered through 0.45 µm polyvinylidene difluoride (PVDF) filters. The solubility may potentially have been influenced by exposure to temperature since both, centrifugation and filtration, were conducted at room temperature.
The concentrations of DTX and BIC were determined using a reversed-phase high-performance liquid chromatography (HPLC) system (Dionex Corporation, CA, USA) equipped with an ASI-100 autosampler, Dionex Ultimate 300 UV-Visible detector and pump. Chromatographic separation was achieved using a XB-C18 Phenomenex Kinetex column of 2.6 μm (2.1 × 50 mm) (Torrance, CA, USA) at 30 °C. […] Peaks were analysed at 270 nm for BIC and 230 nm for DTX. […]

[5] = design: method as in Valicherla et al. [19]; conditions: oral drug delivery strategy for DTX (self-emulsifying drug delivery system), rats, ref Valicherla et al. [19]; cited from earlier work
[6] = design: method as in Zhang et al. [20]; conditions: oral drug delivery strategy for DTX (cyclodextrin-based polymeric micelle), mice, ref Zhang et al. [20]; cited from earlier work
[7] = DTX in plasma, oral suspension, 30 mg/kg DTX, 30 mg/kg
[8] = oral suspension, 30 mg/kg DTX, Fa = AUCoral/AUCIV × 100, mean ± SEM, 30 mg/kg
[9] = intravenous bolus, 1 mg/rat (4–7 mg/kg)

- time after which the saturation solubility of BIC is reached ([1]; BIC in FaSSIF): 120 min
- physical stability (solid state by XRPD) after storage [2]: recrystallized
SMILES: CC(O)(CS(=O)(=O)c1ccc(F)cc1)C(=O)Nc1ccc(C#N)c(C(F)(F)F)c1 (centres unmarked) [Amorphous BIC, bicalutamide]

SMILES: CC(=O)O[C@@]12CO[C@@H]1C[C@H](O)[C@@]1(C)C(=O)[C@H](O)C3=C(C)[C@@H](OC(=O)[C@H](O)[C@@H](NC(=O)OC(C)(C)C)c4ccccc4)C[C@@](O)([C@@H](OC(=O)c4ccccc4)[C@H]21)C3(C)C [Amorphous DTX, Docetaxel]
- DTX supersaturation behaviour ([1]; DTX in FaSSIF, up to 240 min): does not supersaturate
- physical stability (solid state by XRPD) after storage [2]: remained amorphous
- DTX Cmax [3, 7]: 19 ng/mL
- DTX Tmax [3, 7]: 6 h
- DTX AUC [3, 7]: 518 ± 113 ng/mL × 24h
- DTX Fa (absolute oral bioavailability) [3, 8]: 0.56 ± 0.12%

- solubility at 72 h [4]: 3.05 ± 0.9 µg/mL (≈ 7.09 µM)
- Cmax ([3]; both sexes, Sprague Dawley, rat, plasma, iv, 1 mg, intravenous bolus, 1 mg/rat (4–7 mg/kg), read-out: BIC Cmax): 11300 ng/mL
- Tmax ([3]; both sexes, Sprague Dawley, rat, plasma, iv, 1 mg, intravenous bolus, 1 mg/rat (4–7 mg/kg), read-out: BIC Tmax): 0.5 h
- BIC AUC [3, 9]: 317 µg/mL × 24h
SMILES: CC(O)(CS(=O)(=O)c1ccc(F)cc1)C(=O)Nc1ccc(C#N)c(C(F)(F)F)c1 (centres unmarked) [BIC, bicalutamide]

- BIC AUC ([3]; BIC in plasma, oral suspension, 16 mg/kg BIC): 43.06 ± 4.79 µg/mL × 24h
- Cmax ([3]; both sexes, Sprague Dawley, rat, plasma, po, 16 mg/kg, BIC in plasma, oral suspension, 16 mg/kg BIC, read-out: BIC Cmax): 1660 ng/mL
- Tmax ([3]; both sexes, Sprague Dawley, rat, plasma, po, 16 mg/kg, BIC in plasma, oral suspension, 16 mg/kg BIC, read-out: BIC Tmax): 6 h
- bioavailability ([3]; both sexes, Sprague Dawley, rat, plasma, po, 16 mg/kg, BIC, oral suspension, 16 mg/kg BIC, Fa = AUCoral/AUCIV × 100, mean ± SEM, read-out: BIC Fa (absolute oral bioavailability)): 14 ± 1%
SMILES: CC(O)(CS(=O)(=O)c1ccc(F)cc1)C(=O)Nc1ccc(C#N)c(C(F)(F)F)c1 (centres unmarked) [Crystalline BIC, bicalutamide]

SMILES: CC(=O)O[C@@]12CO[C@@H]1C[C@H](O)[C@@]1(C)C(=O)[C@H](O)C3=C(C)[C@@H](OC(=O)[C@H](O)[C@@H](NC(=O)OC(C)(C)C)c4ccccc4)C[C@@](O)([C@@H](OC(=O)c4ccccc4)[C@H]21)C3(C)C [Crystalline DTX, Docetaxel]
- DTX Tmax [3, 7]: 4 h
- DTX Tmax ([3]; DTX in plasma, oral suspension, 30 mg/kg DTX, listed as crystalline DTX, 30 mg/kg): around 1 h
- DTX AUC [3, 7]: 185 ± 29 ng/mL × 24h
- DTX Fa (absolute oral bioavailability) [3, 8]: 0.20 ± 0.03%
- Cmax ([3]; both sexes, Sprague Dawley, rat, plasma, po, 30 mg/kg, DTX in plasma, oral suspension, 30 mg/kg DTX, read-out: DTX Cmax): 15 ng/mL

SMILES: CC(=O)O[C@@]12CO[C@@H]1C[C@H](O)[C@@]1(C)C(=O)[C@H](O)C3=C(C)[C@@H](OC(=O)[C@H](O)[C@@H](NC(=O)OC(C)(C)C)c4ccccc4)C[C@@](O)([C@@H](OC(=O)c4ccccc4)[C@H]21)C3(C)C [DTX, Docetaxel]
- solubility at 72 h [4]: 7.5 ± 1.2 µg/mL (≈ 9.28 µM)
- Cmax [5]: 125 ng/mL
- relative bioavailability increase [5]: 3.2 fold
- Cmax [6]: 292 ng/mL
- relative bioavailability increase [6]: 4.6 fold
- Tmax ([3]; both sexes, Sprague Dawley, plasma, intravenous bolus, 1 mg/rat (4–7 mg/kg), read-out: DTX Tmax): 0.5 h
- Cmax ([3]; both sexes, Sprague Dawley, rat, plasma, iv, 1 mg, intravenous bolus, 1 mg/rat (4–7 mg/kg), read-out: DTX Cmax): 7210 ng/mL
- DTX AUC [3, 9]: 93,196 ± 12,626 ng/mL × 24h
